The text below walks through data of ChEMBL document CHEMBL1154258, “Discovery and optimization of potent and selective functional antagonists of the human adenosine A2B receptor” (Bioorg Med Chem Lett, 2009).

Each structure is given as a SMILES string. pIC50: −log10 of the molar value.

Data set [1] addresses Adenosine receptor A2a (Homo sapiens, UniProt P29274). Briefly: Antagonist activity at human adenosine A2A receptor expressed in CHOK1 cells assessed as inhibition of calcium mobilization by FLIPR assay. Type of data set: functional, cell-based, CHO-K1.
For data set [2], the target named is T1, Adenosine receptor A2b (Homo sapiens, UniProt P29275).
T1 sequence (P29275 whole entry): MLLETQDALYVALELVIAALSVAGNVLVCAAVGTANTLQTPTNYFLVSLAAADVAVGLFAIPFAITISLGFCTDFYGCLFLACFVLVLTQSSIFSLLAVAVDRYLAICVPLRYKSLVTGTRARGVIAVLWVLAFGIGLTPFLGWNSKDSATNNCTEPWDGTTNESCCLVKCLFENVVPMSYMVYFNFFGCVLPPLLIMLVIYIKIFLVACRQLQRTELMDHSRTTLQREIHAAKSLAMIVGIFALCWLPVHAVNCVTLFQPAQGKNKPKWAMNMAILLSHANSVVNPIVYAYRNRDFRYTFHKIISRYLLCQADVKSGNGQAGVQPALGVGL
Put plainly: Antagonist activity at human adenosine A2B receptor expressed in CHOK1 cells assessed as inhibition of calcium mobilization by FLIPR assay. Type of data set: functional, cell-based, CHO-K1. (In general: Calcium flux is commonly read through the fluorescence of an indicator in the cells.)

Data set [3] concerns Rattus norvegicus. Briefly: Volume of distribution in po dosed rat. Type of data set: ADME, organism-based. The note with it: in vivo.
A short description of data set [4]: Half life in po dosed rat. Format: ADME, organism-based. The note with it: in vivo.
In data set [5] the test system is Plasma. Briefly: Clearance in human plasma.
The nature of data set [6]: Oral bioavailability in rat. Format: ADME, organism-based. The note with it: in vivo.
For data set [7], the target named is Voltage-gated inwardly rectifying potassium channel KCNH2 (Homo sapiens, UniProt Q12809). Put plainly: Inhibition of human ERG at 30 uM by patch clamp method.
Data set [8] in a line: Permeability across human Caco-2 cells. Type of data set: ADME, cell-based. The note with it: read-out: permeability.
Data set [9] can be described thus: Clearance in po dosed rat. Format: ADME, organism-based. The note with it: in vivo.
The species entered for data set [10] is Homo sapiens. Briefly: Protein binding in human plasma. The note with it: read-out: PPB (converted).

Sequence of Adenosine receptor A2a (P29274 whole entry): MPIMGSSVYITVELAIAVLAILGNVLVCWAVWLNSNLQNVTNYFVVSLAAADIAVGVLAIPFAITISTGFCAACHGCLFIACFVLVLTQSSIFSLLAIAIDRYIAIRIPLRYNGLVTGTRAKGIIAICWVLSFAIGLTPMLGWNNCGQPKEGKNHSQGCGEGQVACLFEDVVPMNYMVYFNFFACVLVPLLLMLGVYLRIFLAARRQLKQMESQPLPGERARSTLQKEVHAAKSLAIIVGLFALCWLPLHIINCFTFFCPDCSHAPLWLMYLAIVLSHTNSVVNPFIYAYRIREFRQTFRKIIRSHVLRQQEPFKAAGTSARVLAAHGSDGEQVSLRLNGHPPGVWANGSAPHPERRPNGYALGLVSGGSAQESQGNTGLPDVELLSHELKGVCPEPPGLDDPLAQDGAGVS
Sequence of Voltage-gated inwardly rectifying potassium channel KCNH2 (Q12809 whole entry): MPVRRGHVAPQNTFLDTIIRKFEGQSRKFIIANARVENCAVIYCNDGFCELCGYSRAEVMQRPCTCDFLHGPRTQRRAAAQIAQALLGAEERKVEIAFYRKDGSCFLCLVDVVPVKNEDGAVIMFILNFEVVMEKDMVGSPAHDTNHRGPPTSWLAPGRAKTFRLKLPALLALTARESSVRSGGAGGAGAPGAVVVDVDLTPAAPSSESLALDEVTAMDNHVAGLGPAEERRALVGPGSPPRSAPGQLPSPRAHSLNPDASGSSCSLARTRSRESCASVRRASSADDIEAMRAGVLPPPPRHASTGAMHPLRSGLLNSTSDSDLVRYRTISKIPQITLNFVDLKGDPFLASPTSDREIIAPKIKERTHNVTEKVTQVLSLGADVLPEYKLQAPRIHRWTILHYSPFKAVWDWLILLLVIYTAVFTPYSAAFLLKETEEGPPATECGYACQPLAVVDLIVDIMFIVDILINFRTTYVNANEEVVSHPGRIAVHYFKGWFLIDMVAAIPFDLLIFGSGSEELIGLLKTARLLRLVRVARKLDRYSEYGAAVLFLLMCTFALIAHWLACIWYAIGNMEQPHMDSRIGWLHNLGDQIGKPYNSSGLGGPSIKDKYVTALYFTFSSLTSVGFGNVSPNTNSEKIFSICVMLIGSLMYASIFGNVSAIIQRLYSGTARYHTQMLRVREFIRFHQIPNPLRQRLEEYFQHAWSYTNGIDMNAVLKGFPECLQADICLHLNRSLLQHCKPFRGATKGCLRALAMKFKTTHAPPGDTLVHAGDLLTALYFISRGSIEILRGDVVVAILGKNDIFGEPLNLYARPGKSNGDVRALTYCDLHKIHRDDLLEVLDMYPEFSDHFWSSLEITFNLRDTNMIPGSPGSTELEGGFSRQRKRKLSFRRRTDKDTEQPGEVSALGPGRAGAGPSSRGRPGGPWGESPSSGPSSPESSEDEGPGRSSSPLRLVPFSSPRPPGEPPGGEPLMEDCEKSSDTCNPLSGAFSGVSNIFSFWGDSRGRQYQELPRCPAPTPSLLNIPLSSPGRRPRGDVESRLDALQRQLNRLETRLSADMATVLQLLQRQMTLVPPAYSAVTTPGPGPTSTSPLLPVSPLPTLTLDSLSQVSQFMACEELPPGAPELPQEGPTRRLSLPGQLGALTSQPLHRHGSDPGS

For orientation: pIC50 means the negative decadic logarithm of the IC50, by convention in mol/L. Take `O=C(NC1CC1)c1nc(NCc2cccnc2)nc2ccsc12`: the figures for the pIC50 in data set [1] and in data set [2] were 6.15 and 6.59, respectively.
Taken in the same sequence, the figures for `CC(C)NC(=O)c1nc(NCc2cccnc2)nc2ccsc12` were 5.58 and 6.51.
As for `Cc1nc(C(=O)c2ccc(C)s2)c2sccc2n1`, the negative-log IC50 (pIC50) in data set [1] is 5.11; in data set [2] it was under 5.00.
Taken in the same sequence, the figures for `CCc1nc(C(=O)c2ccc(C)s2)c2sccc2n1` were 5.41 and 5.44.
In the case of `Cc1ccc(C(=O)c2nc(N)nc3ccsc23)s1`, the results for the negative-log IC50 (pIC50) in [1] and in data set [2] were 6.66 and 6.12, respectively.
Consider `CCNc1nc(C(=O)c2ccc(C)s2)c2sccc2n1`, for which the pIC50 was 6.90 in data set [1] and 5.90 in data set [2].
On the same counts, the results for `Cc1ccc(C(=O)c2nc(NCc3ccncn3)nc3ccsc23)s1` are 6.94 and 7.04.
As to `Cc1ccc(C(=O)c2nc(NC(C)c3ccccn3)nc3ccsc23)s1` (stereo not drawn), the figures for the pIC50 in data set [1] and in [2] were 6.93 and 7.72, respectively.
What is called half-life is how long it takes for the measured level to halve. A low value points to rapid decline. A word on the bioavailability: it is dose-corrected exposure relative to a reference, in per cent. Higher therefore signals much systemic uptake. Consider `CNc1cc2nc(NCc3cccnc3)nc(C(=O)c3cccs3)c2s1`, for which, in data set [3], the Vd was determined as 2.2 L/kg. In addition, the pIC50 in [1] is 6.02; in data set [2] it was 8.46. For the same compound, the half-life in [4] was 0.93 h. In data set [5], this compound showed a CL of 28.3 mL/min/kg. The bioavailability in [6] worked out at 2%.
For the compound `Cc1ccc(C(=O)c2nc(NCC3CCCCC3)nc3ccsc23)s1`, the negative logarithm of the IC50 (pIC50) in data set [1] and in data set [2] was under 5.00 throughout.
As to `Cc1ccc(C(=O)c2nc(NCc3ccccc3)nc3ccsc23)s1`, the negative logarithm of the IC50 (pIC50) in data set [1] is 5.15; in [2] it was 5.25.
For `Cc1ccc(C(=O)c2nc(NC(=O)c3cccnc3)nc3ccsc23)s1`, the pIC50 in data set [1] is 6.79; in data set [2], 6.54.
With `O=C(c1nc(NCc2cccnc2)nc2ccsc12)N1CCCC1`, the results for the pIC50 in data set [1] and in data set [2] were 5.21 and 6.72, respectively.
On to `Cc1ccc(C(=O)c2nc(NCCc3ccccn3)nc3ccsc23)s1`, for which the negative-log IC50 (pIC50) in data set [1] was 6.45; in [2] it was 6.03.
As to `Cc1ccc(C(=O)c2nc(NCCc3cccnc3)nc3ccsc23)s1`, the pIC50 in [1] was 6.75; in data set [2], 6.35.
For the compound `Cc1ccc(C(=O)c2nc(N(C)Cc3cccnc3)nc3ccsc23)s1`, the figures for the pIC50 in [1] and in data set [2] were 5.64 and 5.38, respectively.
`Cc1ccc(C(=O)c2nc(NC(C)c3ccccc3)nc3ccsc23)s1` (stereo not drawn): the pIC50 in [1] was 5.97; in data set [2], 6.38.
Turning to `Cc1ccc(C(=O)c2nc(NCc3ccccn3)nc3ccsc23)s1`, the negative logarithm of the IC50 (pIC50) in data set [1] was 6.73; in data set [2], 7.37.
Turning to `Cc1ccc(C(=O)c2nc(NCc3cccnc3)nc3ccsc23)s1`, the negative logarithm of the IC50 (pIC50) in [1] was 6.00; in data set [2], 7.26.
On the same counts, the results for `O=C(c1nccs1)c1nc(NCc2cccnc2)nc2ccsc12` are 6.14 and 6.75.
Taken in the same sequence, the figures for `O=C(c1cncs1)c1nc(NCc2cccnc2)nc2ccsc12` were 5.77 and 6.83.
On to `Cc1ccc(C(=O)c2ncnc3ccsc23)s1`, for which the pIC50 in data set [1] is 5.17; in data set [2], 5.27.
Taken in the same sequence, the figures for `Cc1ccc(C(=O)c2nc(NC(C)c3cccnc3)nc3ccsc23)s1` (stereo not drawn) were 7.00 and 7.77.
Regarding `O=C(c1ccc(Cl)s1)c1nc(NCc2cccnc2)nc2ccsc12`, the pIC50 in data set [1] was 5.81; in data set [2], 6.31.
For `Cc1ccc(C(=O)c2nc(NCc3cccnc3)nc3ccsc23)o1`, the pIC50 in data set [1] was 5.90; in [2], 6.33.
Taken in the same sequence, the figures for `O=C(c1cccs1)c1nc(NCc2cccnc2)nc2ccsc12` were 7.29 and 7.74.
Turning to `O=C(c1ccsc1)c1nc(NCc2cccnc2)nc2ccsc12`, the values for the pIC50 in [1] and in data set [2] were 6.39 and 6.83, respectively.
On the same counts, the results for `O=C(c1ccccc1)c1nc(NCc2cccnc2)nc2ccsc12` are 5.79 and 6.29.
On the same counts, the results for `Cc1ccc(C(=O)c2nc(NCc3cccnc3)nc3ccsc23)cc1` are 6.35 and 6.67.
Regarding `COc1ccc(C(=O)c2nc(NCc3cccnc3)nc3ccsc23)cc1`, the negative logarithm of the IC50 (pIC50) in data set [1] is 6.20; in [2] it was 5.89.
On the same counts, the results for `C[C@@H](Nc1nc(C(=O)N2CCCC2)c2sccc2n1)c1cccnc1` are 5.17 and 5.51.
By CL/F is commonly meant clearance divided by bioavailability, as obtained after extravascular dosing. Turning to `C[C@H](Nc1nc(C(=O)N2CCCC2)c2sccc2n1)c1cccnc1`, the Vd in [3] amounted to 3.9 L/kg. Moreover, the values for the negative logarithm of the IC50 (pIC50) in [1] and in data set [2] were 6.33 and 7.74, respectively. The compound further showed a half-life in data set [4] of 2.3 h. Moreover, the “inhibition (INH)” value in data set [7] is on record as “Not Active”. In addition, in data set [8], the Papp worked out at 33 ×10⁻⁶ cm/s. Also, the apparent clearance CL/F in [9] is 43.3 mL/min/kg. In data set [10], the fraction unbound is 0.15. In addition, the bioavailability in data set [6] amounted to 84%.
As for `O=C(c1ccncc1)c1nc(NCc2cccnc2)nc2ccsc12`, the pIC50 in [1] is 5.71; in data set [2], 6.06.
Taken in the same sequence, the figures for `O=C(c1cccs1)c1nc(NCc2cccnc2)nc2cc(Cl)sc12` were 7.21 and 7.80.
`Nc1cc2nc(NCc3cccnc3)nc(C(=O)c3cccs3)c2s1`: the negative logarithm of the IC50 (pIC50) was under 5.00 in data set [1] and 7.49 in data set [2].
Taken in the same sequence, the figures for `CCNc1cc2nc(NCc3cccnc3)nc(C(=O)c3cccs3)c2s1` were 5.60 and 7.72.
On the same counts, the results for `CN(C)c1cc2nc(NCc3cccnc3)nc(C(=O)c3cccs3)c2s1` are 5.85 and 7.41.
For the compound `CNC(=O)c1nc(NCc2cccnc2)nc2ccsc12`, the negative-log IC50 (pIC50) in [2] is 6.31.
In the case of `CCNC(=O)c1nc(NCc2cccnc2)nc2ccsc12`, the negative-log IC50 (pIC50) in [1] is 5.60; in [2], 6.92.
On the same counts, the results for `O=C(c1cccnc1)c1nc(NCc2cccnc2)nc2ccsc12` are 5.93 and 6.96.
On to `O=C(NC1CCCCC1)c1nc(NCc2cccnc2)nc2ccsc12`, for which the pIC50 in data set [2] is 6.24.
`CC(Nc1nc(C(=O)N2CCCC2)c2sccc2n1)c1cccnc1` (racemic): the negative logarithm of the IC50 (pIC50) is 5.63 in data set [1] and 7.89 in [2].
